ChEMBL document CHEMBL4354795, “Amino Acid Scanning at P5' within the Bowman-Birk Inhibitory Loop Reveals Specificity Trends for Diverse Serine Proteases” (J Med Chem, 2019)
Bridge positions count the residues as written; N and C are the ends. Peptide text beside a SMILES is read from it.

Assays:
[1] = target: T1, Kallikrein-7 (Homo sapiens, UniProt P49862); test: Inhibition of recombinant human KLK7 expressed in expressed in Pichia pastoris X-33 cells using KHLY-pNA as susbtrate measured every 15 secs for 10 mins by colorimetric analysis
Target sequence in this assay (P49862 whole entry): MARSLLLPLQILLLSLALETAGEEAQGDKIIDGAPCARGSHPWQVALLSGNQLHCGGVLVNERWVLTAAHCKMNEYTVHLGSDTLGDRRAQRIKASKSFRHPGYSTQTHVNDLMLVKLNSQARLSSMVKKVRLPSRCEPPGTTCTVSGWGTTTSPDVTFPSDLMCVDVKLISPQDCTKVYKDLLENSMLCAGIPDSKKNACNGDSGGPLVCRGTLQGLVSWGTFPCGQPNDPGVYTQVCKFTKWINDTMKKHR

[2] = target: T2, Suppressor of tumorigenicity 14 protein (Homo sapiens, UniProt Q9Y5Y6); test: Inhibition of recombinant human matriptase using Boc-QAR-MCA as susbtrate measured every 60 secs for 10 mins by fluorescence based assay
T2 sequence (Q9Y5Y6 whole entry): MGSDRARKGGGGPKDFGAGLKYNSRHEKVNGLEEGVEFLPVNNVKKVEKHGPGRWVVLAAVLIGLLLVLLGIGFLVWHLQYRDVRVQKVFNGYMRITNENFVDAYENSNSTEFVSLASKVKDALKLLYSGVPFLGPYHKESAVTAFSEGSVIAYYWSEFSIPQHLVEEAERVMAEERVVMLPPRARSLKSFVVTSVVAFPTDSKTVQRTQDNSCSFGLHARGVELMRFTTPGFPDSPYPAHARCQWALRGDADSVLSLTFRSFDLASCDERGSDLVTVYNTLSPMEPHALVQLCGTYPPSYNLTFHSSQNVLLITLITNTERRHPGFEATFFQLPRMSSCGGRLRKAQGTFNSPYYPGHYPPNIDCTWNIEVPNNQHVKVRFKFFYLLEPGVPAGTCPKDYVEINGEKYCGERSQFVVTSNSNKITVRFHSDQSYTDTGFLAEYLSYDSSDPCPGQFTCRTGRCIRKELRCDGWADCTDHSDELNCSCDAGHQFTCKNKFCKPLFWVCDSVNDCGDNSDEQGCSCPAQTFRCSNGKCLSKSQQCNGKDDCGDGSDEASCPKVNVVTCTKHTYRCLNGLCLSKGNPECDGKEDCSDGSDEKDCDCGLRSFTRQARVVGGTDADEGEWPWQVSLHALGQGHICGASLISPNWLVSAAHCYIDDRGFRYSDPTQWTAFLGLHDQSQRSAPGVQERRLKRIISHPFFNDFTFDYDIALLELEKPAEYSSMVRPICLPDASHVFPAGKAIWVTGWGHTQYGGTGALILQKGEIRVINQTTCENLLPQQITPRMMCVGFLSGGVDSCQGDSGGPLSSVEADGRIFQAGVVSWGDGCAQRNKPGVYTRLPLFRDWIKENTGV

[3] = target: T3, Kallikrein-5 (Homo sapiens, UniProt Q9Y337); test: Inhibition of recombinant human KLK5 expressed in expressed in Pichia pastoris X-33 cells using Boc-VPR-MCA as susbtrate measured every 60 secs for 10 mins by fluorescence based assay
T3 sequence (Q9Y337 whole entry): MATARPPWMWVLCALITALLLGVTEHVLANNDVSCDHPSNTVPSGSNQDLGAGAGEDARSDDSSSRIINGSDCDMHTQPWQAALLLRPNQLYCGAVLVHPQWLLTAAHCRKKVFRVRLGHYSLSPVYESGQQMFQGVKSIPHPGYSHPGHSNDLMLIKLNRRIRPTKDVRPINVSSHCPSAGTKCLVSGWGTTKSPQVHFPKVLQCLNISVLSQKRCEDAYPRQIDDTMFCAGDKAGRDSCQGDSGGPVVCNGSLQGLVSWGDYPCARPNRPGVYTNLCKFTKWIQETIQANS

[4] = target: T1, Kallikrein-7; test: Inhibition of recombinant human KLK7 expressed in expressed in Pichia pastoris X-33 cells at 5 uM using KHLY-pNA as susbtrate measured every 15 secs for 10 mins by colorimetric analysis relative to control
Target sequence in this assay (P49862 30-253 limits assumed): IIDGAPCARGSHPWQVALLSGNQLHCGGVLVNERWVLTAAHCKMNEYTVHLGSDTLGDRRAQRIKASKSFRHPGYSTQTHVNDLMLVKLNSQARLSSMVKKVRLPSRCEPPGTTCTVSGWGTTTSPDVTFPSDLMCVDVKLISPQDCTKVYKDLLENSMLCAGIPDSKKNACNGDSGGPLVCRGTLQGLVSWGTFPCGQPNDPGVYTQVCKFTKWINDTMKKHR

[5] = Inhibition of human cationic trypsin using Boc-VPR-MCA as susbtrate measured every 60 secs for 10 mins by fluorescence based assay
[6] = target: T4, Suppressor of tumorigenicity 14 protein (Homo sapiens) (UniProt Q9Y5Y6); test: Inhibition of recombinant human matriptase at 10 uM using Boc-QAR-MCA as susbtrate measured every 60 secs for 10 mins by fluorescence based assay relative to control
T4 sequence (whole entry): T2 sequence (Q9Y5Y6 whole entry)

[7] = species: Homo sapiens; test: Inhibition of human cationic trypsin at 10 uM using Boc-VPR-MCA as susbtrate measured every 60 secs for 10 mins by fluorescence based assay relative to control
[8] = target: T1, Kallikrein-7; test: Inhibition of recombinant human KLK7 expressed in expressed in Pichia pastoris X-33 cells at 10 uM using KHLY-pNA as susbtrate measured every 15 secs for 10 mins by colorimetric analysis relative to control
Target sequence in this assay (P49862 30-253 limits assumed): as above

[9] = target: T1, Kallikrein-7; test: Inhibition of recombinant KLK7 (unknown origin) expressed in Pichia pastoris X-33 cells using p-NA peptide as substrate measured every 10 secs for 300 secs by spectrophotometric analysis
Target sequence in this assay (P49862 whole entry): as the sequence (P49862 whole entry) above

[10] = target: T2, Suppressor of tumorigenicity 14 protein; test: Inhibition of recombinant human matriptase catalytic domain using Boc-QARAMC as substrate preincubated for 1 hr followed by substrate addition
[11] = target: T3, Kallikrein-5; test: Inhibition of recombinant KLK5 (unknown origin) expressed in Pichia pastoris X-33 cells using pNA peptide as susbtrate measured every 10 secs for 300 secs by spectrometric analysis

| IC50 [1] [µM] | IC50 [2] [µM] | Ki [3] [µM] | IC50 [5] [µM] | SMILES | further results |
| --- | --- | --- | --- | --- | --- |
| > 5 | > 10 | 0.0024 | > 10 | N=C(N)NCCC[C@@H]1NC(=O)[C@H](Cc2cnc[nH]2)NC(=O)[C@@H]2CSSC[C@H](NC(=O)[C@H](CCC(=O)O)NC(=O)[C@@H]3CCCN3C(=O)[C@@H]3CCCN3C(=O)[C@H](Cc3ccc(O)cc3)NC(=O)[C@H](CO)NC1=O)C(=O)N[C@@H](Cc1c[nH]c3ccccc13)C(=O)N1CCC[C@H]1C(=O)N[C@@H](CC(N)=O)C(=O)NCC(=O)N[C@@H](Cc1ccccc1)C(=O)N2 | inhibition [4]: < 50% |
| – | – | 0.0089 | – | N=C(N)NCCC[C@@H]1NC(=O)[C@H](Cc2cnc[nH]2)NC(=O)[C@@H]2CSSC[C@H](NC(=O)[C@H](CC(=O)O)NC(=O)[C@@H]3CCCN3C(=O)[C@@H]3CCCN3C(=O)[C@H](Cc3ccc(O)cc3)NC(=O)[C@H](CO)NC1=O)C(=O)N[C@@H](Cc1ccccc1)C(=O)N1CCC[C@H]1C(=O)N[C@@H](CC(N)=O)C(=O)NCC(=O)N[C@@H](Cc1ccccc1)C(=O)N2 (cyclo(CFPNGFCHRSYPPD); disulfide 1-7) | – |
| > 10 | > 10 | 0.0037 | > 10 | N=C(N)NCCC[C@@H]1NC(=O)[C@H](Cc2cnc[nH]2)NC(=O)[C@@H]2CSSC[C@H](NC(=O)[C@H](CCC(=O)O)NC(=O)[C@@H]3CCCN3C(=O)[C@@H]3CCCN3C(=O)[C@H](Cc3ccc(O)cc3)NC(=O)[C@H](CO)NC1=O)C(=O)N[C@@H](Cc1ccccc1)C(=O)N1CCC[C@H]1C(=O)N[C@@H](CC(N)=O)C(=O)NCC(=O)N[C@@H](Cc1ccccc1)C(=O)N2 (cyclo(CFPNGFCHRSYPPE); disulfide 1-7) | inhibition [6]: < 50%; inhibition [7]: < 50%; inhibition [8]: < 50% |
| – | – | – | – | CC[C@H](C)[C@@H]1NC(=O)[C@@H]2CCCN2C(=O)[C@@H]2CCCN2C(=O)[C@H]([C@@H](C)CC)NC(=O)[C@H](CO)NC(=O)[C@H](CCCCN)NC(=O)[C@H]([C@@H](C)O)NC(=O)[C@@H]2CSSC[C@H](NC1=O)C(=O)N[C@@H](Cc1ccccc1)C(=O)N1CCC[C@H]1C(=O)N[C@@H](CC(N)=O)C(=O)NCC(=O)N[C@@H](CCCNC(=N)N)C(=O)N2 (cyclo(CFPNGRCTKSIPPI); disulfide 1-7) | IC50 [9]: > 10 µM; Ki [10]: 0.2 µM; Ki [11]: 0.143 µM |
| – | – | 0.00073 | – | N=C(N)NCCC[C@@H]1NC(=O)[C@H](CC(N)=O)NC(=O)[C@@H]2CSSC[C@H](NC(=O)[C@H](CC(=O)O)NC(=O)[C@@H]3CCCN3C(=O)[C@@H]3CCCN3C(=O)[C@H](Cc3ccc(O)cc3)NC(=O)[C@H](CO)NC1=O)C(=O)N[C@@H](Cc1ccccc1)C(=O)N1CCC[C@H]1C(=O)N[C@@H](CC(N)=O)C(=O)NCC(=O)N[C@@H](Cc1ccc(O)cc1)C(=O)N2 (cyclo(CFPNGYCNRSYPPD); disulfide 1-7) | – |
| > 10 | > 10 | 0.00034 | > 2 | N=C(N)NCCC[C@@H]1NC(=O)[C@H](CC(N)=O)NC(=O)[C@@H]2CSSC[C@H](NC(=O)[C@H](CCC(=O)O)NC(=O)[C@@H]3CCCN3C(=O)[C@@H]3CCCN3C(=O)[C@H](Cc3ccc(O)cc3)NC(=O)[C@H](CO)NC1=O)C(=O)N[C@@H](Cc1ccccc1)C(=O)N1CCC[C@H]1C(=O)N[C@@H](CC(N)=O)C(=O)NCC(=O)N[C@@H](Cc1ccc(O)cc1)C(=O)N2 (cyclo(CFPNGYCNRSYPPE); disulfide 1-7) | – |
